In patent US12679878B2, “CRF2 receptor agonists and their use in therapy” (SANOFI, priority 2020, dated 2026):
Like-named read-outs stand apart in the source and are kept apart here. Starred links: 1 amine or outer side, 2 acyl side, 3 side chain; linkers in the order of their positions; H or OH if unused. Non-standard residues stand in square brackets, D forms with d. Residues, ends and D or L forms follow the SMILES beside them. Groups on a side chain read outwards from the residue. *: point of attachment. C18 diacid = O=C(O)CCCCCCCCCCCCCCCCC(=O)*; γGlu = O=C(O)[C@H](CCC(=O)[*:2])N[*:1]; Palmitoyl = CCCCCCCCCCCCCCCC(=O)*; AEEA = NCCOCCOCC(=O)O; Aib = CC(C)(N)C(=O)O

Experiments:
[1] = biological target: T1, CRF2R (Homo sapiens, UniProt Q13324); test: EC50 [nM] CRF2R
T1 construct: expressed in transfected cells; host or cells: TeloHEAC
Excerpt: (§1) Table printed on a drawing sheet, Fig. 3
Head of the field: EC50 [nM] CRF2R
(§2) The patent's description of the figure: FIG. 3: Representative sequences from peptides according to the invention with an optimized stability profile, wherein K[sema] stands for K[gGlu-C(O)(CH2)14CH3]
(§3) First copying reader's note: Second half (positions 13-38, C-term and activity) of the first table; the rows follow the same order, so the four rows of Peptide Seq. 1 are Patent Sequence N° 130, 171, 172 and 173.
Where the first naming reader finds the target: head: EC50 [nM] CRF2R

[2] = biological target: T2, hCRF1 (Homo sapiens, UniProt P34998); test: hCRF1 EC50 [nM]
T2 construct: host or cells: CHO-K1 clone 2
Excerpt: as §1
Head of the field: hCRF1 EC50 [nM]
as §2, §3
Where the first naming reader finds the target: head: hCRF1 EC50 [nM]

[3] = Chemical stability, purity loss by UPLC-UV after 28 days at 40° C. vs 5° C., pH 4.5 acetate buffer (Example 12); format: physicochemical; conditions: 28 days 40° C. vs 5° C.; pH 4.5, 20 mM acetate buffer; 300 μM
Outline: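 300 μM compound (purity-corrected) in 20 mM acetate buffer, pH 4.5, stored 28 days at 5 and 40° C. Purity by UPLC-UV as compound peak area over total peak area. Value is the purity difference between 5° C. and 40° C. samples, relative to the 5° C. purity, in percent.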

[4] = biological target: T3, CRF1R receptor (Homo sapiens, UniProt P34998); test: cAMP activity at anti-target CRF1R, CRF1R-overexpression CHO cell line (Example 9); format: cell-based; conditions: CRF1R-overexpression CHO cell line
T3 construct: host or cells: CHO-K1 clone 2
T3 sequence (P34998 24-415): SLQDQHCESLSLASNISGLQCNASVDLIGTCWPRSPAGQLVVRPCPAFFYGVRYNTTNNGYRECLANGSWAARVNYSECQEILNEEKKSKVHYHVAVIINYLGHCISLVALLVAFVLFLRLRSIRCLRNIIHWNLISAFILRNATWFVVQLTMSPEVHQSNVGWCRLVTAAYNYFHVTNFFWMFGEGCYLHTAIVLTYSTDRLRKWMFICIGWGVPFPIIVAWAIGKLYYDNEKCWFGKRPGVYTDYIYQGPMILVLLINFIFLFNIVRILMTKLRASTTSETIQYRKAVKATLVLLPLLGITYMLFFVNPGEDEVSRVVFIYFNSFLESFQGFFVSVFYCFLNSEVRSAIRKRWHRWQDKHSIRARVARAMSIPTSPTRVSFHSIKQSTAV
Outline: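 Using thawed CRF1R-overexpressing CHO cells at 2000 per well, compound is applied for 30 min at RT in HBSS/HEPES buffer with IBMX. Cellular cAMP content is determined via HTRF, and percent activity is calculated against 1000 nM UCN2 defined as 100%.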

[5] = Physical stability, Thioflavin T fibrillation assay (Example 14); format: physicochemical; conditions: Buffer B: 100 mM acetate buffer, pH 4.5, 2.7 mg/ml m-cresol; 3 mg/ml; 37° C. shaking
Outline: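 Fibrillation tendency was judged from lag time and rise in Thioflavin T fluorescence, measured every 20 minutes over eight replicates per sample. Peptides at 3 mg/ml final were held at 37° C under cycles of 10 s shaking (960 rpm) and 50 s rest.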

[6] = biological target: T4, human CRF2α receptor (Homo sapiens, UniProt Q13324); test: cAMP agonism at human CRF2 α receptor in TeloHEAC cells (Example 7); format: cell-based; conditions: cAMP HTRF, TeloHEAC cells stably expressing human CRF2 α
T4 construct: expressed in transfected cells; host or cells: TeloHEAC
T4 sequence (Q13324 1-411): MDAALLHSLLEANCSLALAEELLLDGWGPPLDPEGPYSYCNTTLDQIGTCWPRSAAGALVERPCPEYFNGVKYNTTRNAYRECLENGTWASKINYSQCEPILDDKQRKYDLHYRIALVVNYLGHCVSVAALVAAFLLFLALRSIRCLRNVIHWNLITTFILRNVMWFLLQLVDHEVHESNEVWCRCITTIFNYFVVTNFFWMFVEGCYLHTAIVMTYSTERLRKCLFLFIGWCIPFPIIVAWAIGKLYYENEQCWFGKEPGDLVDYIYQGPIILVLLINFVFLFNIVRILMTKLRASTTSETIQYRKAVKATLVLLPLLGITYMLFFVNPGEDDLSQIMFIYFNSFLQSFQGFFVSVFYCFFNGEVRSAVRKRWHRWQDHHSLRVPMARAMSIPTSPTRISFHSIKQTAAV
Outline: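 HTRF ratio 665/620 nm, read 1 h after lysis reagents, reports cAMP. Cells: thawed stocks, 2000/well, 30 min RT with compound in HBSS, 20 mM HEPES, 0 or 0.1% HSA, 2 mM IBMX. Activity normalised to UCN2 1000 nM = 100%; EC50 from half-maximal activation.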

[7] = test system: rat CRF2R α receptor; test: cAMP agonism at rat CRF2R α receptor in A7R5 rat aortic smooth muscle cells (Example 8); format: cell-based; conditions: cAMP HTRF, A7R5 rat aortic smooth muscle cell line, 0% HSA
Outline: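 Potency (EC50) is the concentration reaching half-maximal activation, with responses scaled so that 1000 nM urocortin 2 equals 100%. Intracellular cAMP was quantified by homogeneous time-resolved fluorescence at 665/620 nm, 1 h after lysis-buffer reagents. Compound stimulation lasted 30 min at room temperature on 2000 IBMX-treated (2 mM) cells per well in HEPES-buffered HBSS.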

[8] = biological target: T5, endogenous human CRF2 (Homo sapiens, UniProt Q13324); test: cAMP agonist effect in NCI-H82 cells expressing endogenous human CRF2 (Example 10); format: cell-based; conditions: cAMP HTRF, 5 min activation
T5 construct: endogenous in cells; host or cells: NCI-H82
T5 sequence (Q13324 1-411): T4 sequence (Q13324 1-411)
Description: The agonist effect of the compounds was assessed in NCI-H82 cells expressing endogenous human CRF2.
NCI-H82 cells in suspension were plated in low-volume 384-well plates at a density of 30000 cells/well in 5 μl of test medium (RPMI+1 mM IBMX). The plates were briefly centrifuged at 800 rpm to allow the cell suspension to move to the bottom of the wells and then incubated for 2 hours at 37° C. in 5% CO2. 5 μl of test compounds at appropriate concentrations (10-11 to 3×10-7) diluted in test medium were then transferred in 384 wells plates. After 5 min of activation, the reaction was stopped by addition of HTRF revelation reagents with a multidrop dispenser. The two reagents were 5 μl/well of Anti-CAMP-cryptate diluted 20-fold in conjugate and lysis buffer and 5 μl/well of cAMP-D2 diluted 20-fold in conjugate and lysis buffer. After one-hour incubation at room temperature in the dark, the plates were read on a Clariostar apparatus.

EC50 [1] [nM]	EC50 [2] [nM]	Relative purity loss [%] [3] [%]	EC50 ([4]; 0% HSA) [nM]	Emax ([4]; read-out: Emax (%)) [%]	Increase in FI (fluorescence intensity) [5]	Lag time [5] [h]	EC50 ([6]; 0% HSA, read-out: EC50 [nM], 0% HSA) [nM]	EC50 ([6]; 0.1% HSA, read-out: EC50 [nM], 0.1% HSA) [nM]	EC50 [7] [nM]	EC50 [8] [nM]	SMILES
0.07	91										CCCCCCCCCCCCCCCC(=O)N[C@@H](CCC(=O)NCCCC[C@H](NC(=O)[C@@H](NC(=O)[C@H](CCCCN)NC(=O)[C@@H](NC(=O)[C@@H]1CCCN1C(=O)[C@@H](NC(=O)[C@H](CC(=O)O)NC(=O)[C@H](CC(C)C)NC(=O)[C@H](CO)NC(=O)[C@H](CC(C)C)NC(=O)[C@@H](NC(=O)[C@@H](N)Cc1ccccc1)[C@@H](C)O)C(C)C)[C@@H](C)O)[C@@H](C)CC)C(=O)N[C@@H](CCC(N)=O)C(=O)N[C@@H](CCCCN)C(=O)N[C@@H](CC(C)C)C(=O)N[C@@H](CC(C)C)C(=O)N[C@@H](CCCCN)C(=O)N[C@@H](CCC(N)=O)C(=O)N[C@@H](CCC(=O)O)C(=O)N[C@@H](CCCCN)C(=O)N[C@@H](CCC(N)=O)C(=O)N[C@@H](CCCCN)C(=O)N[C@@H](CCCCN)C(=O)N[C@@H](CCC(N)=O)C(=O)N[C@@H](CCCNC(=N)N)C(=O)N[C@@H](CCC(N)=O)C(=O)N[C@@H](CCCCN)C(=O)N[C@@H](C)C(=O)N[C@@H](CCCCN)C(=O)N[C@H](C(=O)N[C@@H](CC(N)=O)C(=O)N[C@@H](CCCCN)C(=O)N[C@@H](CCC(N)=O)C(=O)N[C@H](C(=O)N[C@@H](CC(C)C)C(=O)N[C@@H](CCC(=O)O)C(=O)N[C@@H](CCC(N)=O)C(=O)N[C@H](C(N)=O)C(C)C)[C@@H](C)CC)[C@@H](C)O)C(=O)O [SEQ ID NO: 10] (H-FTLSLDVPTKIK([γGlu-Palmitoyl])QKLLKQEKQKKQRQKAKTNKQILEQV-NH2)
		4.25	> 1000	20.3	No	>45	0.05	2.11	0.13	4.3	CC[C@H](C)[C@H](N)C(=O)N[C@H](C(=O)N[C@@H](CC(C)C)C(=O)N[C@@H](CO)C(=O)N[C@@H](CC(C)C)C(=O)N[C@@H](CC(=O)O)C(=O)N[C@@H](C(=O)N1CCC[C@H]1C(=O)N[C@H](C(=O)N[C@@H](CCCCN)C(=O)N[C@@H](CC(C)C)C(=O)N[C@@H](CCCCNC(=O)COCCOCCNC(=O)COCCOCCNC(=O)CC[C@H](NC(=O)CCCCCCCCCCCCCCCCC(=O)O)C(=O)O)C(=O)N[C@@H](CCC(N)=O)C(=O)N[C@H](C(=O)N[C@@H](CC(C)C)C(=O)N[C@@H](CC(C)C)C(=O)N[C@@H](CCCCN)C(=O)N[C@@H](CCC(N)=O)C(=O)N[C@@H](CCC(=O)O)C(=O)N[C@@H](CCCNC(=N)N)C(=O)N[C@@H](CCC(N)=O)C(=O)N[C@@H](CCCCN)C(=O)NC(C)(C)C(=O)N[C@@H](CCC(N)=O)C(=O)N[C@@H](CCCNC(=N)N)C(=O)N[C@@H](CCC(=O)O)C(=O)N[C@@H](CCC(N)=O)C(=O)N[C@@H](C)C(=O)N[C@@H](CCC(=O)O)C(=O)N[C@@H](CCCCN)C(=O)N[C@@H](CC(N)=O)C(=O)N[C@@H](CCCCN)C(=O)N[C@@H](CCC(N)=O)C(=O)N[C@H](C(=O)N[C@@H](CC(C)C)C(=O)N[C@@H](C)C(=O)N[C@@H](CCC(N)=O)C(=O)N[C@H](C(N)=O)C(C)C)[C@@H](C)CC)[C@@H](C)CC)[C@@H](C)CC)C(C)C)C(C)C [compound 130] (H-IVLSLD[dV]PIKLK([AEEA-AEEA-γGlu-C18 diacid])QILLKQERQK[Aib]QREQAEKNKQILAQV-NH2; N-terminus assumed)
